# Results as given in US20240082218A1, “PHARMACEUTICAL COMBINATIONS COMPRISING A KRAS G12C INHIBITOR AND USES OF A KRAS G12C INHIBITOR FOR THE TREATMENT OF CANCERS” (priority 2020, published 2024).
# Marks after values point to notes of the source that are not given here.
# Legend:
# KRASG12C [1] = target: T1, KRASG12C (Homo sapiens, UniProt P01116, G12C); assay: cRAF recruitment 6 h cellular assay; format: cell-based
# NRAS WT = NRAS WT (Homo sapiens, UniProt P01111); assay: cRAF recruitment 6 h cellular assay; format: cell-based
# [2] = test system: KRAS G12C-mutated cell lines; assay: pERK 6 h cellular assay; format: cell-based; details: Hec50, 6 h, read-out: pERK 6 h EC50 KRAS^G12C
# [3] = test system: MEK Q56P mutated cell lines; assay: pERK 6 h cellular assay; format: cell-based; details: Hec50, 6 h, read-out: pERK 6 h EC50 MEK^Q56P
# [4] = test system: KRAS G12C-mutated cell lines; assay: Proliferation cellular assay; format: cell-based
# [5] = test system: MEK Q56P mutated cell lines; assay: Proliferation cellular assay; format: cell-based
# pERK = assay: In vitro pERK inhibition in H358 cancer cells; format: cell-based; details: Homo sapiens, NCI-H358
# Description: (§1) KRASG12C inhibition can be assessed by measuring free KRASG12C levels (target occupancy) and other biomarkers in the MAPK signaling pathway, such as decreased levels of phosphorylated ERK1/2 (pERK) and downregulation of DUSP6 mRNA transcript. […] In the less sensitive NCI-H2122 xenografts, orally administered JDQ443 (100 mg/kg QD) achieved approximately 80% KRASG12C inhibition and 90% decrease in DUSP6 mRNA transcript, causing stasis which is the maximum response in this model upon MAPK pathway inhibition.
# KRAS G12C_H95Q (GDP) = target: T2, KRAS G12C_H95Q (GDP) (Homo sapiens, UniProt P01116, G12C/H95Q); assay: Covalent rate constants by RapidFire MS; format: binding; details: n=2
# T2 construct: the cDNA encoding KRAS, NRAS, and HRAS comprised aa 1-169; made in house; host or cells: E. coli BL21(DE3)
# Description: (§2) The E. coli expression constructs used in this study were based on the pET system and generated using standard molecular cloning techniques. […] Point mutations were introduced with the QuikChange Lightning Site-Directed Mutagenesis kit (Agilent). All final expression constructs were sequence verified by Sanger sequencing.
# (§3) Cell pellets were resuspended in buffer A (20 mM Tris, 500 mM NaCl, 5 mM imidazole, 2 mM TCEP, 10% glycerol, pH 8.0) supplemented with Turbonuclease (Merck) and cOmplete protease inhibitor tablets (Roche). The cells were lysed by three passages through a homogenizer (Avestin) at 800-1000 bar and the lysate clarified by centrifugation at 40000 g for 40 min. The lysate was loaded onto a HisTrap HP 5 ml column (Cytiva) mounted on an ÅKTA Pure 25 chromatography system (Cytiva). Contaminating proteins were washed away with buffer A and bound protein was eluted with a linear gradient to buffer B (buffer A supplemented with 200 mM imidazole). During dialysis O/N the N-terminal His affinity purification tags on the non-tagged and avi-tagged proteins were cleaved off by TEV or HRV3C protease, respectively. The protein solution was re-loaded onto a HisTrap column and the flow through containing the target protein collected. Guanosine 5′-diphosphate sodium salt (GDP, Sigma) or GppNHp-Tetralithium salt (Jena Bioscience) was added to a 24-32× molar excess over protein. […] After 1 hour at room temperature the buffer was exchanged on a PD-10 desalting column (Cytiva) against 40 mM Tris, 200 mM (NH4)2SO4, 0.1 mM ZnCl2, pH 8.0. […] 40 U Shrimp Alkaline Phosphatase (New England Biolabs) was added to GppNHp containing samples only. The sample was then incubated for 1 hour at 5° C. Finally, MgCl2 was added to a concentration of about 30 mM.
# (§4) Reactions were stopped at different time points by addition of formic acid to 1%. […] In parallel, compound solubility was assessed by nephelometry and compound concentrations resulting in measurable turbidity were excluded from curve fitting. […]
# KRAS G12C_Y96C (GDP) = target: T3, KRAS G12C_Y96C (GDP) (Homo sapiens, UniProt P01116, G12C/Y96C); assay: Covalent rate constants by RapidFire MS; format: binding; details: n=2
# T3 construct: the cDNA encoding KRAS, NRAS, and HRAS comprised aa 1-169; made in house; host or cells: E. coli BL21(DE3)
# Description: as §2, §3, §4
# KRAS G12C_Y96D (GDP) = target: T4, KRAS G12C_Y96D (GDP) (Homo sapiens, UniProt P01116, G12C/Y96D); assay: Covalent rate constants by RapidFire MS; format: binding; details: n=3
# T4 construct: the cDNA encoding KRAS, NRAS, and HRAS comprised aa 1-169; made in house; host or cells: E. coli BL21(DE3)
# Description: as §2, §3, §4
# [6] = test system: MIA PaCa-2 (KRASG12C pancreas) xenograft; assay: Anti-tumor activity in MIA PaCa-2 xenografts; format: in vivo, mice
# KYSE410 xenograft = assay: Anti-tumor activity in KYSE410 (esophageal) xenografts; format: in vivo, mice; details: 10, 30 and 100 mg/kg oral daily
# DUSP6 mRNA transcript [7] = assay: In vivo DUSP6 mRNA in MIA PaCa-2 xenografts; details: 30 mg/kg QD oral
# DUSP6 mRNA transcript [8] = assay: In vivo DUSP6 mRNA in NCI-H2122 xenografts; details: 100 mg/kg QD oral
# Description: as §1
# Blood pharmacokinetics = details: in vivo
# 4-week toxicity study = format: in vivo; details: dog
# KRASG12C [9] = target: T1, KRASG12C; assay: In vivo KRASG12C target occupancy in NCI-H2122 xenografts; set-up: endogenous in cells; details: 100 mg/kg QD oral
# Description: as §1
# KRASG12C [10] = target: T1, KRASG12C; assay: In vitro KRAS G12C target occupancy in H358 cancer cells; format: cell-based; set-up: endogenous in cells; host or cells: H358 (NCI-H358) cancer cells; details: read-out: in vitro IC50 for inhibition of KRAS G12C (target occupancy)
# Description: as §1
# KRASG12C [11] = target: T1, KRASG12C; assay: KRASG12C target occupancy in LU99 xenografts after 5 days treatment; format: in vivo; set-up: KRASG12C target occupancy was assessed after 5 days treatment of LU99 xenografts; endogenous in cells; host or cells: LU99 tumour xenografts in nude mice; details: single-agent 30 mg/kg vs 100 mg/kg
# NRAS WT, sequence (P01111 whole entry): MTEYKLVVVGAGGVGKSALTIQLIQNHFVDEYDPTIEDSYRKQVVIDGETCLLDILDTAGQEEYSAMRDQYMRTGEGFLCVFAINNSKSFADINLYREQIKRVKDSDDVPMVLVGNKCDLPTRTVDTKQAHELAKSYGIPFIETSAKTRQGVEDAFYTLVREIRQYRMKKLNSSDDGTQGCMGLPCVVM
smiles,measurement,setting,value
"C=CC(=O)N1CC2(CC(n3nc(-c4ccc5c(cnn5C)c4)c(-c4c(Cl)c(C)cc5[nH]ncc45)c3C)C2)C1 (single isomer, unassigned) [Compound A, 1-{6-[(4M)-4-(5-Chloro-6-methyl-1H-indazol-4-yl)-5-methyl-3-(1-methyl-1H-indazol-5-yl)-1H-pyrazol-1-yl]-2-azaspiro[3.3]heptan-2-yl}prop-2-en-1-one]",EC50,KRASG12C [1],20 nM
same,EC50,NRAS WT,> 6000 nM
same,EC50,[2],20 nM
same,EC50,[3],> 10000 nM
same,GI50,[4],30 nM
same,GI50,[5],4000 nM
same,IC50,pERK,20 nM
same,Second order rate constant (Kinact/KI),KRAS G12C_H95Q (GDP),9500 M⁻¹ s⁻¹
same,Second order rate constant (Kinact/KI),KRAS G12C_Y96C (GDP),650 M⁻¹ s⁻¹
same,Second order rate constant (Kinact/KI),KRAS G12C_Y96D (GDP),90 M⁻¹ s⁻¹
same,anti-tumor activity,[6]; 3 mg/kg daily oral,tumor stasis
same,anti-tumor activity,"[6]; 5 mg/kg twice daily, compared with 10 mg/kg daily",comparable regression
same,anti-tumor activity,[6]; 10 mg/kg daily oral,tumor regression
same,anti-tumor activity,"[6]; 15 mg/kg twice daily, compared with 30 mg/kg qd",same tumor regression
same,tumor growth inhibition by schedule,[6]; 30 mg/kg daily compared to 30 mg/kg q3d or 90 mg/kg q3d,better tumor growth inhibition
same,anti-tumor activity,[6]; 30 mg/kg daily oral,tumor regression
same,anti-tumor activity,[6]; 100 mg/kg daily oral,tumor regression
same,pattern of maximal response,"[6]; 10, 30 and 100 mg/kg oral daily",regression
same,pattern of maximal response,KYSE410 xenograft,moderate tumor growth inhibition
same,decrease in DUSP6 mRNA transcript,DUSP6 mRNA transcript [7],~75%
same,decrease in DUSP6 mRNA transcript,DUSP6 mRNA transcript [8],approximately 90%
same,half-life,Blood pharmacokinetics,~2 h
same,tolerability in 4-week toxicity study,4-week toxicity study,well tolerated
same,inhibition at 100 mg/kg,KRASG12C [9],~80%
same,IC50,KRASG12C [10],20 nM
same,reduction of free KRAS^G12C in tumors,KRASG12C [11],less reduction of free KRAS^G12C
